Patent US11884647B2, “Compounds and methods for targeting pathogenic blood vessels” (THE REGENTS OF THE UNIVERSITY OF CALIFORNIA, priority 2019, dated 2024)

Columns and labels:
[1] = tested on: tumor endothelial cells (LL/2 lung cancer tumor); assay: Lung LL2 ex vivo model of tumor angiogenesis; assay type: cell-based, mouse; settings: for cytotoxicity at 40 µM / cytotoxicity at 20 µM: Mus musculus, Endothelial cell, 48 h, read-out: Cell death; for Cell death: Lung LL2 ex vivo, Conc. 20 μm, drug treatment two days
Method in brief: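 Read-out is live/dead fluorescence imaging (fluorescein diacetate green, propidium iodide red, 10 min at 37° C) at 2×, taken e.g. 48 h after drug addition. Fragments of mouse LL2 tumor are cultured in Matrigel with endothelial growth medium, usually 4 days, until new endothelial cells grow out, then treated.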

[2] = tested on: tumor endothelial cells (CT26.CL25 colon cancer tumor); assay: Colon CT26 ex vivo model of tumor angiogenesis; assay type: cell-based; settings: Mus musculus, CT26, 48 h, read-out: Cell death
Method in brief: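 Explant pieces of CT26 tumor (about 0.075 mm^3) were embedded in Matrigel and grown in endothelial growth medium at 37 °C for about 7 days until endothelial outgrowth appeared, then treated. Cell death was read about 48 h after drug addition by fluorescein diacetate (live) and propidium iodide (dead) staining with red/green imaging.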

Structure (SMILES)	cytotoxicity at 40 µM [2] [%]	cytotoxicity at 20 µM [1] [%]	cytotoxicity at 20 µM [2] [%]	also measured
CCc1ccc(S(=O)(=O)c2cnc3ccc(OC(F)(F)F)cc3c2NCCO)cc1 [compound 95, 2-((3-((4-ethylphenyl)sulfonyl)-6-(trifluoromethoxy)quinolin-4-yl)amino)ethan-1-ol]	0	–	–	cytotoxicity at 40 µM [1]: 10%
COc1ccc(S(=O)(=O)c2cnc3cc(OC)c(OC)cc3c2-n2cncn2)cc1OC [compound 96, 3-((3,4-dimethoxyphenyl)sulfonyl)-6,7-dimethoxy-4-(1H-1,2,4-triazol-1-yl)quinoline]	–	0	–	cytotoxicity at 10 µM [2]: 0%
COc1ccc(S(=O)(=O)c2cnc3ccc([N+](=O)[O-])cc3c2-n2cncn2)cc1 [compound 97, 3-((4-methoxyphenyl)sulfonyl)-6-nitro-4-(1H-1,2,4-triazol-1-yl)quinoline]	–	50	–	cytotoxicity at 10 µM [2]: 100%
COc1ccc(S(=O)(=O)c2cnc3ccc(CC#N)cc3c2-n2cncn2)cc1 [compound 98, 2-(3-((4-methoxyphenyl)sulfonyl)-4-(1H-1,2,4-triazol-1-yl)quinolin-6-yl)acetonitrile]	–	10	–	cytotoxicity at 10 µM [2]: 50%
COc1ccc(S(=O)(=O)c2cnc3ccc(CC#N)cc3c2NN2CCN(C)CC2)cc1 [compound 99, 2-(3-((4-methoxyphenyl)sulfonyl)-4-((4-methylpiperazin-1-yl)amino)quinolin-6-yl)acetonitrile]	0	–	–	cytotoxicity at 40 µM [1]: 10%
CCc1ccc(S(=O)(=O)c2cnc3ccc(OC(F)(F)F)cc3c2N2CCCN(CCN(CC)CC)CC2)cc1 [compound 100, N,N-diethyl-2-(4-(3-((4-ethylphenyl)sulfonyl)-6-(trifluoromethoxy)quinolin-4-yl)-1,4-diazepan-1-yl)ethan-1-amine]	100	–	–	cytotoxicity at 40 µM [1]: 100%
CCc1ccc(S(=O)(=O)c2cnc3ccc(OC(F)(F)F)cc3c2N2CCC(OCCN(CC)CC)CC2)cc1 [compound 101, N,N-diethyl-2-((1-(3-((4-ethylphenyl)sulfonyl)-6-(trifluoromethoxy)quinolin-4-yl)piperidin-4-yl)oxy)ethan-1-amine]	–	–	50	Cell death [1]: 100%
CCc1ccc(S(=O)(=O)c2cnc3ccc(OC(F)(F)F)cc3c2N2CCC(N3CCC(O)CC3)CC2)cc1 [compound 102, 1′-(3-((4-ethylphenyl)sulfonyl)-6-(trifluoromethoxy)quinolin-4-yl)-[1,4′-bipiperidin]-4-ol]	5	–	–	Cell death [1]: 20%
CCc1ccc(S(=O)(=O)c2cnc3ccc(OC(F)(F)F)cc3c2-n2ccnn2)cc1 [compound 110, 3-((4-ethylphenyl)sulfonyl)-4-(1H-1,2,3-triazol-1-yl)-6-(trifluoromethoxy)quinoline]	10	95	–	–
CCc1ccc(S(=O)(=O)c2cnc3ccc(OC(F)(F)F)cc3c2-n2nnc3ccccc32)cc1 [compound 112, 4-(1H-benzo[d][1,2,3]triazol-1-yl)-3-((4-ethylphenyl)sulfonyl)-6-(trifluoromethoxy)quinoline]	10	70	–	–
CCCCOc1ccc2ncc(S(=O)(=O)c3ccc(OC)c(OC)c3)c(N3CCC(N4CCCCC4)CC3)c2c1 [compound 116, 4-([1,4′-bipiperidin]-1′-yl)-6-butoxy-3-((3,4-dimethoxyphenyl)sulfonyl)quinoline]	–	100	50	–
CCc1ccc(S(=O)(=O)c2cnc3ccc(OC(F)(F)F)cc3c2-n2cnc(C)c2)cc1 [compound 117, 3-((4-ethylphenyl)sulfonyl)-4-(4-methyl-1H-imidazol-1-yl)-6-(trifluoromethoxy)quinoline]	–	100	100	–
CCc1ccc(S(=O)(=O)c2cnc3ccc(OC(F)(F)F)cc3c2-n2ccnc2)cc1 [compound 118, 3-((4-ethylphenyl)sulfonyl)-4-(1H-imidazol-1-yl)-6-(trifluoromethoxy)quinoline]	–	100	100	–
